Measurements taken from the RepoRT retention time repository (doi:10.1093/pcp/pcn183).
Counter-ions that a name gives are not always drawn.

test: RP, Waters ACQUITY UPLC BEH C18, 38 °C, 0.24 mL/min; A: water + 0.1% formic acid, pH 3; B: acetonitrile + 0.1% formic acid, pH 3; gradient (min/%B) 0/0 0.25/0 0.4/9 0.8/17 1.9/100 2.1/100 2.11/0 3/0; conditions: stereoisomer not certain

SMILES | LC retention time [min]
CC(=CCNc1ncnc2c1ncn2C1OC(CO)C(O)C1O)CO (stereo not drawn) [trans-Zeatin-riboside] | 1.16
O=P(O)(O)O[C@H]1O[C@H](CO)[C@H](O)[C@H](O)[C@H]1O [alpha-D-Galactose-1-phosphate dipotassium salt pentahydrate] | 0.16
Nc1ncnc2c1ncn2C1OC(CO)C(O)C1O (centres undefined) [Adenosine] | 1.06
CC(O)C(=O)SCC(NC(=O)CCC(N)C(=O)O)C(=O)NCC(=O)O (centres undefined) [S-Lactoylglutathione] | 1.06
COc1cc(-c2[o+]c3cc(O)cc(O)c3cc2OC2OCC(O)C(O)C2O)ccc1O (stereo not drawn) [Peonidin-3-O-alpha-arabinopyranoside] | 1.3
O=C1CC(c2ccc(O)c(O)c2)Oc2cc(O)cc(O)c21 (centres undefined) [Eriodictyol] | 1.59
CCCC(O)C(=O)O (racemic) [DL-2-Hydroxyvaleric acid sodium salt hydrate] | 1.14
CC(C)CC(N)C(=O)O [L-Leucine, (Cell Culture Reagent, Crystalline)] | 0.53
Cc1ncc(CO)c(C=O)c1O [pyridoxal hydrochrolide] | 0.38
NC(=O)c1ccc[n+](C2OC(COP(=O)([O-])O)C(O)C2O)c1 (stereo not drawn) [beta-Nicotinamide mononucleotide] | 0.24
CC1OC(OCC2OC(Oc3c(-c4ccc(O)cc4)oc4cc(O)cc(O)c4c3=O)C(O)C(O)C2O)C(O)C(O)C1O (centres undefined) [kaempferol-3-O-rutinoside] | 1.42
O=S(=O)(O)Oc1c[nH]c2ccccc12 [3-Indoxylsulfate potassium salt] | 1.24
OCC1OC(Oc2cc(O)cc3[o+]c(-c4ccc(O)c(O)c4)c(OC4OC(CO)C(O)C(O)C4OC4OCC(O)C(O)C4O)cc23)C(O)C(O)C1O (centres undefined) | 1.12
O=C(CCc1ccccc1)c1c(O)cc(O)cc1OC1OC(CO)C(O)C(O)C1O (centres undefined) [4-deoxyphloridzin] | 1.5
NC12CC3CC(CC(C3)C1)C2 [Amantadine hydrochloride] | 1.28
CCC=CCC1C(=O)CCC1CC(=O)OC (centres undefined) [Methyl Jasmonate] | 1.93
O=C(O)c1ccccc1O [Salicylic Acid] | 1.55
NCCS(=O)O [Hypotaurine] | 0.16
CN1C2CCC1CC(=O)C2 [Tropinone] | 0.24
CCCCCCC(=O)O [n-heptanoic acid] | 0.29

SMILES | LC retention time [min]
C[N+](C)(C)CC(=O)[O-] [Betaine] | 0.17
O=C(O)C=Cc1ccccc1O [2-Hydroxycinnamic acid, predominantly trans] | 1.51
CC(=O)OC[C@H](N)C(=O)O [O-acetyl-L-serine hydrochloride] | 0.19
Nc1ccn(C2OC3COP(=O)(O)OC3C2O)c(=O)n1 (centres undefined) [Cytidine-3',5'-cyclicmonophosphate] | 0.67
O=c1cc(-c2ccc(O)c(O)c2)oc2cc(OC3OC(CO)C(O)C(O)C3O)cc(O)c12 (centres undefined) [luteolin-7-O-glucoside] | 1.41
O=c1ccn(C2OC(COP(=O)(O)O)C(O)C2O)c(=O)[nH]1 (centres undefined) [Uridine-5'-monophosphate] | 0.26
CC(=O)NC(CO)C(=O)O (racemic) [N-acetyl-DL-serine] | 0.24
NC(CCC(=O)NC(CS)C(=O)O)C(=O)O (centres undefined) [gamma-Glu-Cys] | 0.55
O=C(CCc1ccc(O)cc1)c1c(O)cc(O)cc1OC1OC(CO)C(O)C(O)C1O (centres undefined) [Phloridzin] | 1.49
O=C(O)CCCCCCCCC(=O)O [Sebacic acid] | 1.58
Nc1ccn(C2OC(CO)C(O)C2O)c(=O)n1 (centres undefined) [Cytidine,cell culture tested] | 0.34
O=C(O)c1ccco1 [2-Furoic acid] | 1.15
OCC1OC(Oc2cc3c(OC4OC(CO)C(O)C(O)C4O)cc(O)cc3[o+]c2-c2ccc(O)cc2)C(O)C(O)C1O (centres undefined) [Pelargonin chloride] | 1.14
NCC(CC(=O)O)c1ccc(Cl)cc1 (racemic) [(+-)-Baclofen] | 1.24
NC(CCC(=O)NC(CSSCC(NC(=O)CCC(N)C(=O)O)C(=O)NCC(=O)O)C(=O)NCC(=O)O)C(=O)O (centres undefined) [Glutathione (oxidized form)] | 0.95
CC(C)CC(O)C(=O)O (centres undefined) [2-Hydroxyisocaproic acid] | 1.34
CN(C)C=O [N,N-Dimethylformamide(DMF)] | 0.51
CCCCCCCCCCCC(=O)OCC(O)COP(=O)([O-])OCC[N+](C)(C)C (centres undefined) [Phosphocholine,1-Lauroyl-2-Hydroxy-sn-Glycero-3-] | 1.79
O=c1ccc2ccc(O)c(O)c2o1 [Daphnetin] | 1.34
C[n+]1cccc(C(=O)[O-])c1 [Trigonelline hydrochloride] | 0.19

SMILES | LC retention time [min]
Nc1ccc(C(=O)NCC(=O)O)cc1 [4-Aminohippurate] | 0.93
CC(C)c1cccc(O)c(=O)c1 [Hinokitiol] | 1.49
O=C(O)C(O)Cc1ccc(O)cc1 (racemic) [DL-p-Hydroxyphenyllactic acid] | 1.18
O=S(=O)(O)CCN1CCN(CCS(=O)(=O)O)CC1 [PIPES] | 0.16
O=C(O)C1=CCNCC1 [Isoguvacine hydrochloride] | 0.18
CNCC(O)c1cccc(O)c1 [(R)-(-)-Phenylephrine hydrochloride] | 0.59
CC1(C(=O)O)CCC2(C)CCC3(C)C(=CC(=O)C4C5(C)CCC(OC6OC(C(=O)O)C(O)C(O)C6OC6OC(C(=O)O)C(O)C(O)C6O)C(C)(C)C5CCC43C)C2C1 (centres undefined) [Glycyrrhizin] | 1.7
CC(CO)CCNc1ncnc2nc[nH]c12 (racemic) [DL-Dihydrozeatin] | 1.11
C[C@@H](O)[C@H](N)CC(=O)O [L-beta-homothreonine] | 0.19
N[C@H](CS)C(=O)O [D-Cysteine] | 0.15
Nc1nc2c(ncn2C2OC(COP(=O)(O)O)C(O)C2O)c(=O)[nH]1 (centres undefined) [Guanosine-5'-monophosphate] | 0.44
CCC=CCC1C(=O)CCC1CC(=O)O (racemic) [(+-)-Jasmonic acid] | 1.68
NCCc1ccc(O)cc1 [Tyramine] | 0.67
OCC1OC(OC2C(Oc3cc4c(O)cc(O)cc4[o+]c3-c3ccc(O)c(O)c3)OC(CO)C(O)C2O)C(O)C(O)C1O (centres undefined) | 1.16
Cc1ncc(C[n+]2csc(CCOP(=O)(O)O)c2C)c(N)n1 [Thiamine monophosphate chloride dihydrate] | 0.19
COC1C(O)C(O)C(O)C(O)C1O [D-Pinitol] | 0.17
C[N+](C)(C)CCOP(=O)([O-])OCC(O)CO (centres undefined) [sn-Glycero-3-phosphocholine 1:1 cadmium chloride adduct] | 0.17
O=c1c(-c2ccc(O)cc2)coc2cc(OC3OC(CO)C(O)C(O)C3O)ccc12 (centres undefined) [Daidzin] | 1.34
Cc1cc2nc3c(=O)[nH]c(=O)nc-3n(CC(O)C(O)C(O)COP(=O)(O)O)c2cc1C (centres undefined) | 1.19
